Consider 19 molecules from ChEMBL document CHEMBL4184126, “Synthesis of novel 6-substituted amino-9-(β-d-ribofuranosyl)purine analogs and their bioactivities on human epithelial cancer cells” (Bioorg Med Chem Lett, 2018).

Holding throughout (assay type): functional, cell-based
Experiment [1] concerns Huh-7. Kind of experiment: Antiproliferative activity against human HuH7 cells after 72 hrs by SRB assay. A general note: The SRB assay estimates cell density from bound dye.
The subject of experiment [2] is HCT-116. The experiment can be described thus: Antiproliferative activity against human HCT116 cells after 72 hrs by SRB assay.
For experiment [3], the system named is MCF7. The experiment can be described thus: Antiproliferative activity against human MCF7 cells after 72 hrs by SRB assay.
The subject of experiment [4] is HepG2. The experiment can be described thus: Antiproliferative activity against human HepG2 cells after 72 hrs by SRB assay.
Experiment [5] deals with Mahlavu. Kind of experiment: Antiproliferative activity against human Mahlavu cells after 72 hrs by SRB assay.
A short description of experiment [6]: Antiproliferative activity against human FOCUS cells after 72 hrs by SRB assay.
Where [7] appears, read: Homo sapiens, MCF7, 72 h, read-out: IC50.
Where [8] appears, read: Homo sapiens, HCT-116, 72 h, read-out: IC50.
Setting [9] is: Homo sapiens, Mahlavu, 72 h, read-out: IC50.
[10] abbreviates: Homo sapiens, 72 h, read-out: IC50.
Where [11] appears, read: Homo sapiens, Huh-7, 72 h, read-out: IC50.
The mark [12] stands for this setting: Homo sapiens, HepG2, 72 h, read-out: IC50.

For orientation: IC50 means the midpoint of a concentration-inhibition curve. For `OC[C@H]1O[C@@H](n2cnc3c(Nc4ccc(N5CCOCC5)cc4)ncnc32)[C@H](O)[C@@H]1O`, the figures for the IC50 entry in experiment [1] (huh-7), in experiment [2] (hct-116) and in experiment [3] (setting [7]) were “Not Active”, “Not Active” and 80 µM, respectively.
As for `Cc1ccc(N2CCN(c3ncnc4c3ncn4[C@@H]3O[C@H](CO)[C@@H](O)[C@H]3O)CC2)cc1`, the IC50 entry in experiment [1] (huh-7) was “Not Active”; in experiment [2] (setting [8]), 70 µM; in experiment [3] (setting [7]), over 100 µM; in experiment [4] (hepg2) it was “Not Active”; in experiment [5] (setting [9]) it was over 100 µM; in experiment [6] (setting [10]) it was 40 µM.
Consider `CN(C)c1ccc(Nc2ncnc3c2ncn3[C@@H]2O[C@H](CO)[C@@H](O)[C@H]2O)cc1`, for which the IC50 in experiment [1] (setting [11]) came to 80 µM; in experiment [2] (setting [8]) it was 40 µM; in experiment [3] (setting [7]), 30 µM; in experiment [4] (setting [12]), 30 µM; in experiment [5] (setting [9]), 30 µM; in experiment [6] (setting [10]), 20 µM.
`Nc1nc(N2CCN(c3ccccc3)CC2)c2ncn([C@@H]3O[C@H](CO)[C@@H](O)[C@H]3O)c2n1`: the IC50 in experiment [1] (setting [11]) is 50 µM; in experiment [2] (setting [8]), 30 µM; in experiment [3] (mcf7), “Not Active”; in experiment [4] (setting [12]), over 100 µM; in experiment [5] (mahlavu), “Not Active”; in experiment [6] (setting [10]), 9 µM.
In the case of `OC[C@H]1O[C@@H](n2cnc3c(N4CCN(c5ccc(C(F)(F)F)cc5)CC4)nc(Cl)nc32)[C@H](O)[C@@H]1O`, the 50% inhibitory concentration (IC50) in experiment [1] (setting [11]) was 1 to 2 µM; in experiment [2] (setting [8]) it was 1 µM; in experiment [3] (setting [7]), 4 µM; in experiment [4] (setting [12]), 3 µM; in experiment [5] (setting [9]) it was 3 µM; in experiment [6] (setting [10]), 1 µM.
With `CSc1ccc(Nc2ncnc3c2ncn3[C@@H]2O[C@H](CO)[C@@H](O)[C@H]2O)cc1`, the half-maximal inhibitory concentration (IC50) result in experiment [1] (huh-7) was “Not Active”; in experiment [2] (setting [8]), over 100 µM; in experiment [3] (mcf7), “Not Active”.
`CC(C)c1ccc(Nc2ncnc3c2ncn3[C@@H]2O[C@H](CO)[C@@H](O)[C@H]2O)cc1`: the 50% inhibitory concentration (IC50) in experiment [1] (setting [11]) was determined as 60 µM; in experiment [2] (setting [8]) it was 10 µM; in experiment [3] (setting [7]), 50 µM; in experiment [4] (setting [12]), 40 µM; in experiment [5] (setting [9]) it was 40 µM; in experiment [6] (setting [10]), 20 µM.
Consider `OC[C@H]1O[C@@H](n2cnc3c(NCCNc4ccccc4)ncnc32)[C@H](O)[C@@H]1O`, for which the IC50 entry was “Not Active” in experiment [1] (huh-7), 30 µM in experiment [2] (setting [8]) and over 100 µM in experiment [3] (setting [7]).
For `Nc1nc(F)nc2c1ncn2[C@@H]1O[C@H](CO)[C@@H](O)[C@@H]1O` [FLUDARABINE], the concentration for half-maximal inhibition (IC50) was 30 µM in experiment [1] (setting [11]); 8 µM in experiment [2] (setting [8]); 15 µM in experiment [3] (setting [7]); 20 µM in experiment [4] (setting [12]); 10 µM in experiment [5] (setting [9]); 10 µM in experiment [6] (setting [10]).
For the molecule `OC[C@H]1O[C@@H](n2cnc3c(NCCC4=CCCCC4)ncnc32)[C@H](O)[C@@H]1O`, the concentration for half-maximal inhibition (IC50) in experiment [1] (setting [11]) is over 100 µM; in experiment [2] (setting [8]) it was 6 µM; in experiment [3] (setting [7]), 3 µM; in experiment [4] (setting [12]), 1 µM; in experiment [5] (setting [9]), over 100 µM; in experiment [6] it was “Not Active”.
For `Nc1nc(N2CCN(c3ccc(F)cc3)CC2)c2ncn([C@@H]3O[C@H](CO)[C@@H](O)[C@H]3O)c2n1`, the concentration for half-maximal inhibition (IC50) in experiment [1] (setting [11]) was over 100 µM; in experiment [2] (setting [8]) it was 30 µM; in experiment [3] (mcf7), “Not Active”.
For `OC[C@H]1O[C@@H](n2cnc3c(N4CCN(c5ncccn5)CC4)ncnc32)[C@H](O)[C@@H]1O`, the values for the IC50 entry in experiment [1] (huh-7), in experiment [2] (setting [8]) and in experiment [3] (setting [7]) were “Not Active”, over 100 µM and 40 µM, respectively.
On to `Nc1nc(Cl)nc2c1ncn2[C@H]1C[C@H](O)[C@@H](CO)O1` [CLADRIBINE], for which the IC50 is 0.4 to 0.9 µM in experiment [1] (setting [11]); under 0.1 µM in experiment [2] (setting [8]); 0.04 µM in experiment [4] (setting [12]); 0.1 µM in experiment [5] (setting [9]); 0.4 µM in experiment [6] (setting [10]).
`OC[C@H]1O[C@@H](n2cnc3c(N4CCN(C5CCCCC5)CC4)ncnc32)[C@H](O)[C@@H]1O`: the half-inhibitory concentration (IC50) entry is “Not Active” in experiment [1] (huh-7), over 100 µM in experiment [2] (setting [8]) and “Not Active” in experiment [3] (mcf7).
As to `Nc1nc(N2CCN(c3ncccn3)CC2)c2ncn([C@@H]3O[C@H](CO)[C@@H](O)[C@H]3O)c2n1`, the IC50 entry in experiment [1] (huh-7), in experiment [2] (hct-116) and in experiment [3] (mcf7) was “Not Active” in each case.
As to `O=c1[nH]cc(F)c(=O)[nH]1` [FLUOROURACIL], the IC50 in experiment [1] (setting [11]) was found to be 30 µM; in experiment [2] (setting [8]), 4 µM; in experiment [3] (setting [7]), 3 µM; in experiment [5] (setting [9]), 10 µM; in experiment [6] (setting [10]), 4 µM.
Regarding `Nc1nc(N2CCN(C(c3ccccc3)c3ccccc3)CC2)c2ncn([C@@H]3O[C@H](CO)[C@@H](O)[C@H]3O)c2n1`, the IC50 in experiment [1] (setting [11]) amounted to 10 µM; in experiment [2] (setting [8]), 20 µM; in experiment [3] (setting [7]), 20 µM; in experiment [4] (setting [12]), 20 µM; in experiment [5] (setting [9]) it was 7 µM; in experiment [6] (setting [10]) it was 20 µM.
With `Cc1ccc(N2CCN(c3nc(N)nc4c3ncn4[C@@H]3O[C@H](CO)[C@@H](O)[C@H]3O)CC2)cc1`, the concentration for half-maximal inhibition (IC50) result in experiment [1] (huh-7), in experiment [2] (hct-116) and in experiment [3] (mcf7) was “Not Active” throughout.
Consider `OC[C@H]1O[C@@H](n2cnc3c(NCCC4=CCCCC4)nc(Cl)nc32)[C@H](O)[C@@H]1O`, for which the IC50 in experiment [1] (setting [11]) amounted to 20 µM; in experiment [2] (setting [8]) it was 90 µM; in experiment [3] (setting [7]) it was 30 µM; in experiment [4] (setting [12]), 40 µM; in experiment [5] (setting [9]) it was 30 µM; in experiment [6] (setting [10]), 50 µM.
